Measurements from article PMC10425210 (The Journal of Clinical Investigation, 2023).

Test: Plasma pharmacokinetics after a single subcutaneous administration of LEN
Assay type: in vivo, rhesus macaques
Details: for concentration at 8 week: week 8 post dose; for concentration at 9 week: week 9 post dose; for concentration at 10 week: week 10 post dose; for concentration at 11 week: week 11 post dose; for concentration at 12 week: week 12 post dose; for concentration at 14 week: week 14 post dose
Experimental: All animals were housed at Bioqual Inc. For the in vivo SHIV stock titration study, 8 untreated outbred Indian-origin male rhesus macaques aged 3–5 years were challenged intrarectally per round for a total of 5 challenge rounds using increasing virus doses ranging from 0.625 to 100 TCID50, with the 100 TCID50 round performed twice for increased resolution (Supplemental Table 2). Plasma viral load was measured to confirm the infection status. […] Injection sites were monitored daily by veterinary staff for 2 weeks and then weekly through the end of study. On week 7, 11 animals were challenged by the intrarectal route with 1 mL RPMI containing 100 TCID50 SHIV-SF162P3. Whole blood was collected and processed into plasma and PBMCs as necessary for the assessment of routine hematology and clinical chemistry, viral load analysis, serology, and the bioanalysis of drug levels. Animals were considered protected if they remained SHIV negative by a plasma PCR assay and seronegative by enzyme immunoassay through week 10 after challenge.
Rhesus plasma samples were stored frozen at –80°C and thawed, and a 50 μL aliquot of each was treated with 200 μL acetonitrile containing an internal standard. After precipitation of the protein component, a 100 μL aliquot of the supernatant was transferred to a clean 96-well plate and mixed with 200 μL water. A 10 μL aliquot of the above solution was then injected into a Q-Exactive high resolution mass spectrometer from Thermo Electron with electrospray ionization in positive mode.

[1] = male, Indian-origin (outbred), rhesus monkey, plasma, subcutaneous, 5 mg/kg, Plasma LEN (Mean), 5 mg/kg sc
[2] = male, Indian-origin (outbred), rhesus monkey, plasma, subcutaneous, 10 mg/kg, Plasma LEN (Mean), 10 mg/kg sc
[3] = male, Indian-origin (outbred), rhesus monkey, plasma, subcutaneous, 20 mg/kg, Plasma LEN (Mean), 20 mg/kg sc

CC(C)(C#Cc1ccc(-c2ccc(Cl)c3c(NS(C)(=O)=O)nn(CC(F)(F)F)c23)c([C@H](Cc2cc(F)cc(F)c2)NC(=O)Cn2nc(C(F)(F)F)c3c2C(F)(F)[C@@H]2C[C@H]32)n1)S(C)(=O)=O [LEN, Lenacapavir]
dose proportionality of exposure (5 to 20 mg/kg sc): dose-proportional increase | dose proportionality of exposure (50 to 75 mg/kg sc): more than dose-proportional increase | Plasma LEN (animal BM55, 20 mg/kg, week 0 post challenge): 38.60 nM | Plasma LEN (animal BM55, 20 mg/kg, week 6 post challenge): 10.80 nM | Plasma LEN (animal BM55, 20 mg/kg, week 7 post challenge): 7.10 nM | Plasma LEN (animal BM55, 20 mg/kg, week 8 post challenge): 5.30 nM | Plasma LEN (animal BM55, 20 mg/kg, week 9 post challenge): 3.80 nM | Plasma LEN (animal BM55, 20 mg/kg, week 10 post challenge): 4.10 nM | Plasma LEN (animal BN33, 20 mg/kg, week 0 post challenge): 18.60 nM | Plasma LEN (animal BN33, 20 mg/kg, week 6 post challenge): 9.10 nM | Plasma LEN (animal BN33, 20 mg/kg, week 7 post challenge): 5.71 nM | Plasma LEN (animal BN33, 20 mg/kg, week 8 post challenge): 6.90 nM | Plasma LEN (animal BN33, 20 mg/kg, week 9 post challenge): 4.70 nM | Plasma LEN (animal BN33, 20 mg/kg, week 10 post challenge): 4.50 nM | Plasma LEN (animal CO92, 50 mg/kg, week 0 post challenge): 50.08 nM | Plasma LEN (animal CO92, 50 mg/kg, week 1 post challenge): 62.65 nM | Plasma LEN (animal CO92, 50 mg/kg, week 2 post challenge): 47.76 nM | Plasma LEN (animal CO92, 50 mg/kg, week 3 post challenge): 52.01 nM | Plasma LEN (animal CO92, 50 mg/kg, week 4 post challenge): 67.23 nM | Plasma LEN (animal CO92, 50 mg/kg, week 5 post challenge): 66.62 nM | Plasma LEN (animal CO92, 50 mg/kg, week 6 post challenge): 66.12 nM | Plasma LEN (animal CO92, 50 mg/kg, week 7 post challenge): 36.27 nM | Plasma LEN (animal CO92, 50 mg/kg, week 8 post challenge): 42.04 nM | Plasma LEN (animal CO92, 50 mg/kg, week 9 post challenge): 52.87 nM | Plasma LEN (animal CO92, 50 mg/kg, week 10 post challenge): 56.39 nM | Plasma LEN (animal CO92, 50 mg/kg, week 11 post challenge): 43.33 nM | Plasma LEN (animal CO92, 50 mg/kg, week 12 post challenge): 27.05 nM | Plasma LEN (animal CO92, 50 mg/kg, week 13 post challenge): 18.50 nM | Plasma LEN (animal CO92, 50 mg/kg, week 14 post challenge): 13.10 nM | Plasma LEN (animal CO92, 50 mg/kg, week 15 post challenge): 18.82 nM | Plasma LEN (animal CO92, 50 mg/kg, week 16 post challenge): 13.67 nM | Plasma LEN (animal CP67, 75 mg/kg, week 8 post challenge): 37.09 nM | Plasma LEN (animal CP67, 75 mg/kg, week 9 post challenge): 36.45 nM | Plasma LEN (animal CP67, 75 mg/kg, week 10 post challenge): 23.67 nM | Plasma LEN (animal CP67, 75 mg/kg, week 11 post challenge): 20.33 nM | Plasma LEN (animal V229, 20 mg/kg, week 0 post challenge): 37.30 nM | Plasma LEN (animal V229, 20 mg/kg, week 6 post challenge): 15.10 nM | Plasma LEN (animal V229, 20 mg/kg, week 7 post challenge): 8.33 nM | Plasma LEN (animal V229, 20 mg/kg, week 8 post challenge): 6.00 nM | Plasma LEN (animal V229, 20 mg/kg, week 9 post challenge): 3.70 nM | Plasma LEN (animal V229, 20 mg/kg, week 10 post challenge): 4.60 nM | Plasma LEN (animal V411, 50 mg/kg, week 0 post challenge): 143.42 nM | Plasma LEN (animal V411, 50 mg/kg, week 1 post challenge): 64.99 nM | Plasma LEN (animal V411, 50 mg/kg, week 2 post challenge): 55.43 nM | Plasma LEN (animal V411, 50 mg/kg, week 3 post challenge): 47.46 nM | Plasma LEN (animal V411, 50 mg/kg, week 4 post challenge): 28.61 nM | Plasma LEN (animal V411, 50 mg/kg, week 5 post challenge): 19.46 nM | Plasma LEN (animal V411, 50 mg/kg, week 6 post challenge): 17.89 nM | Plasma LEN (animal V411, 50 mg/kg, week 7 post challenge): 11.22 nM | Plasma LEN (animal V411, 50 mg/kg, week 8 post challenge): 7.46 nM | Plasma LEN (animal V411, 50 mg/kg, week 9 post challenge): 7.40 nM | Plasma LEN (animal V411, 50 mg/kg, week 10 post challenge): 5.89 nM | Plasma LEN (animal V411, 50 mg/kg, week 11 post challenge): 3.67 nM | Plasma LEN (animal V411, 50 mg/kg, week 12 post challenge): 2.40 nM | Plasma LEN (animal V411, 50 mg/kg, week 13 post challenge): 3.03 nM | Plasma LEN (animal V411, 50 mg/kg, week 14 post challenge): 2.52 nM | Plasma LEN (animal V411, 50 mg/kg, week 15 post challenge): 2.21 nM | Plasma LEN (animal V411, 50 mg/kg, week 16 post challenge): 1.79 nM | Plasma LEN (animal V417, 75 mg/kg, week 8 post challenge): 23.00 nM | Plasma LEN (animal V417, 75 mg/kg, week 9 post challenge): 32.44 nM | Plasma LEN (animal V417, 75 mg/kg, week 10 post challenge): 33.77 nM | Plasma LEN (animal V426, 75 mg/kg, week 8 post challenge): 36.31 nM | Plasma LEN (animal V426, 75 mg/kg, week 9 post challenge): 52.45 nM | Plasma LEN (animal V426, 75 mg/kg, week 10 post challenge): 38.56 nM | Plasma LEN (animal V426, 75 mg/kg, week 11 post challenge): 38.65 nM | Plasma LEN (animal V430, 50 mg/kg, week 0 post challenge): 117.17 nM | Plasma LEN (animal V430, 50 mg/kg, week 1 post challenge): 47.07 nM | Plasma LEN (animal V430, 50 mg/kg, week 2 post challenge): 55.06 nM | Plasma LEN (animal V430, 50 mg/kg, week 3 post challenge): 44.89 nM | Plasma LEN (animal V430, 50 mg/kg, week 4 post challenge): 40.12 nM | Plasma LEN (animal V430, 50 mg/kg, week 5 post challenge): 30.18 nM | Plasma LEN (animal V430, 50 mg/kg, week 6 post challenge): 23.37 nM | Plasma LEN (animal V430, 50 mg/kg, week 7 post challenge): 9.85 nM | Plasma LEN (animal V430, 50 mg/kg, week 8 post challenge): 6.90 nM | Plasma LEN (animal V430, 50 mg/kg, week 9 post challenge): 7.41 nM | Plasma LEN (animal V430, 50 mg/kg, week 10 post challenge): 7.29 nM | Plasma LEN (animal V430, 50 mg/kg, week 11 post challenge): 3.38 nM | Plasma LEN (animal V430, 50 mg/kg, week 12 post challenge): 2.44 nM | Plasma LEN (animal V430, 50 mg/kg, week 13 post challenge): 1.41 nM | Plasma LEN (animal V430, 50 mg/kg, week 14 post challenge): 1.81 nM | Plasma LEN (animal V430, 50 mg/kg, week 15 post challenge): 1.32 nM | Plasma LEN (animal V435, 75 mg/kg, week 7 post challenge): 3.85 nM | Plasma LEN (animal V435, 75 mg/kg, week 8 post challenge): 2.05 nM | Plasma LEN (animal V435, 75 mg/kg, week 9 post challenge): 2.10 nM | Plasma LEN (animal V435, 75 mg/kg, week 10 post challenge): 1.92 nM | Plasma LEN (animal V470, 50 mg/kg, week 0 post challenge): 100.49 nM | Plasma LEN (animal V470, 50 mg/kg, week 1 post challenge): 40.04 nM | Plasma LEN (animal V470, 50 mg/kg, week 2 post challenge): 48.42 nM | Plasma LEN (animal V470, 50 mg/kg, week 3 post challenge): 50.54 nM | Plasma LEN (animal V470, 50 mg/kg, week 4 post challenge): 46.19 nM | Plasma LEN (animal V470, 50 mg/kg, week 5 post challenge): 35.17 nM | Plasma LEN (animal V470, 50 mg/kg, week 6 post challenge): 44.02 nM | Plasma LEN (animal V470, 50 mg/kg, week 7 post challenge): 26.59 nM | Plasma LEN (animal V470, 50 mg/kg, week 8 post challenge): 17.23 nM | Plasma LEN (animal V470, 50 mg/kg, week 9 post challenge): 20.99 nM | Plasma LEN (animal V470, 50 mg/kg, week 10 post challenge): 19.02 nM | Plasma LEN (animal V470, 50 mg/kg, week 11 post challenge): 17.74 nM | Plasma LEN (animal V470, 50 mg/kg, week 12 post challenge): 12.55 nM | Plasma LEN (animal V470, 50 mg/kg, week 13 post challenge): 11.15 nM | Plasma LEN (animal V470, 50 mg/kg, week 14 post challenge): 8.52 nM | Plasma LEN (animal V470, 50 mg/kg, week 15 post challenge): 6.58 nM | Plasma LEN (animal V470, 50 mg/kg, week 16 post challenge): 6.37 nM | duration of plasma exposures above the paEC95 (8.8 nM) (eleven animals of the 3 highest dosing groups): over 10 weeks | concentration at 8 week [1]: 4.42 nM | concentration at 9 week [1]: 5.79 nM | concentration at 10 week [1]: 3.41 nM | concentration at 11 week [1]: 4.16 nM | concentration at 12 week [1]: 1.87 nM | concentration at 14 week [1]: 1.45 nM | concentration at 8 week [2]: 9.6 nM | concentration at 9 week [2]: 10.1 nM | concentration at 10 week [2]: 8.41 nM | concentration at 11 week [2]: 5.96 nM | concentration at 12 week [2]: 5.13 nM | concentration at 14 week [2]: 3.63 nM | concentration at 8 week [3]: 26.1 nM | concentration at 9 week [3]: 28 nM | concentration at 10 week [3]: 27.9 nM | concentration at 11 week [3]: 15 nM | concentration at 12 week [3]: 9.8 nM | concentration at 13 week (male, Indian-origin (outbred), rhesus monkey, plasma, subcutaneous, 20 mg/kg, Plasma LEN (Mean), 20 mg/kg sc, week 13 post dose): 11.7 nM | concentration at 14 week [3]: 7.07 nM | concentration at 15 week (male, Indian-origin (outbred), rhesus monkey, plasma, subcutaneous, 20 mg/kg, Plasma LEN (Mean), 20 mg/kg sc, week 15 post dose): 6.07 nM | concentration at 16 week (male, Indian-origin (outbred), rhesus monkey, plasma, subcutaneous, 20 mg/kg, Plasma LEN (Mean), 20 mg/kg sc, week 16 post dose): 4.07 nM | concentration at 17 week (male, Indian-origin (outbred), rhesus monkey, plasma, subcutaneous, 20 mg/kg, Plasma LEN (Mean), 20 mg/kg sc, week 17 post dose): 4.4 nM | concentration at 8 week (male, Indian-origin (outbred), rhesus monkey, plasma, subcutaneous, 50 mg/kg, Plasma LEN (Mean), 50 mg/kg sc): 53.7 nM
